As a reminder, the IC50 is the point on the concentration scale where inhibition reaches its midpoint.

Each structure is given as a SMILES string.

Consider 8 molecules from patent publication US10118915B2, “Kappa opioid ligands” (The Scripps Research Institute, priority 2012, dated 2018).

kappa opioid receptor (OPRK1), sequence (P41145 whole entry): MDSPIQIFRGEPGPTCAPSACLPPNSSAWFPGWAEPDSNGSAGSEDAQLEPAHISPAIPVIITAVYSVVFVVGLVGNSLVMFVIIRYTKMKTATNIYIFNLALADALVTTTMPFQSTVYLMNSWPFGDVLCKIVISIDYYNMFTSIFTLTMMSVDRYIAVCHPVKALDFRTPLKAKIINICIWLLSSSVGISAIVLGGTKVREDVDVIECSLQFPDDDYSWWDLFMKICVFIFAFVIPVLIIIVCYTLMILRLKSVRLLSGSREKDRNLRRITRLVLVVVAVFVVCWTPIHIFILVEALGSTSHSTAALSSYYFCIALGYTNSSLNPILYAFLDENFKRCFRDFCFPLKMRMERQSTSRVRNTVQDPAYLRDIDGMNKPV

The first experiment concerns the target kappa opioid receptor (OPRK1) (Homo sapiens (Human), UniProt P41145). In words: OPRK1 antagonist assay (b-arrestin-2-TEV protease / b-lactamase reporter cell line, EC80 challenge of U-50488). The experiment is classed as cell-based.
Conditions: not given
In the case of `COC(=O)c1cc(Br)cnc1NC1CCC(NC2CCCCC2)CC1` (centres unmarked) [C20], the IC50 was greater than 10 µM.
Still for that read-out and setting: as for `CC(C)c1noc(-c2cc(Br)cnc2N2CCC(NC3CCCCC3)CC2)n1` [C42], the figure is greater than 10 µM; as for `Cc1ccc2nc(N3C[C@@H]4[C@H](C3)[C@H]4NC3CCOCC3)c(-c3nc(C)no3)cc2c1` [C88], greater than 10 µM.

The experiment is the same for the next values; noted with them: antagonist mode vs EC80 U-50488; read-out: IC50.
For the molecule `Cc1cc(C#N)nc(N2CCC(N[C@@H]3CCCC[C@H]3O)CC2)c1C#N` [C11], the IC50 is greater than 10 µM.
The same measure, in the same setting: as for `COC1CN(c2nc3ccccc3cc2C2=NCC(C)O2)CCC1NC1CCCCC1O` (centres unmarked) [compound 258], the figure is 7.16 µM.
On the same count and under the same terms, for `CCc1noc(-c2cc3cc(C)ccc3nc2N2CC[C@@H](NC3CCCCC3)[C@H](OC)C2)n1` [compound 335] the value was 0.113 µM; for `Cc1nc(-c2cc3ccc(F)cc3nc2N2CCC(NC3CCOCC3)CC2)no1` [compound 486], 1.07 µM.
The same measure, in the same setting: as for `Cc1nc(-c2cc3cc(F)ccc3nc2N2CCC(NC3CCCCCC3)CC2)no1` [compound 489], the figure is 0.616 µM.
